ChEMBL document CHEMBL1201862, “PubChem BioAssay data set” (2004)
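Tested at 5 concentrations; 48 h exposure; 96-well plates; endpoints linearly interpolated, else capped at highest concentration. The concentration for 50% growth inhibition is given as GI50.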 Calls of active or inactive are those of the source. No stated cut-off is given here; in the data, active = GI50 up to about 1.1 µM and inactive = higher.

What was measured:
Assay in all cases: NCI tumour cell line growth inhibition, 48 h
HOP-92 = test system: HOP-92
CAKI-1 = test system: CAKI-1
HCC 2998 = test system: HCC 2998
MDA-MB-435 = test system: MDA-MB-435
OVCAR-5 = test system: OVCAR-5
SF-295 = test system: SF-295
SK-MEL-28 = test system: SK-MEL-28
Hs-578T = test system: Hs-578T
786-0 = test system: 786-0
UACC-62 = test system: UACC-62
EKVX = test system: EKVX
DU-145 = test system: DU-145
KM12 = test system: KM12
SNB-75 = test system: SNB-75
HCT-15 = test system: HCT-15
U-251 = test system: U-251
T47D = test system: T47D
A549 = test system: A549
LOX IMVI = test system: LOX IMVI
Malme-3M = test system: Malme-3M
IGROV-1 = test system: IGROV-1
NCI-H522 = test system: NCI-H522
SK-MEL-5 = test system: SK-MEL-5
SW-620 = test system: SW-620
TK-10 = test system: TK-10
CCRF-CEM = test system: CCRF-CEM
BT-549 = test system: BT-549
UACC-257 = test system: UACC-257
HL-60 = test system: HL-60
ACHN = test system: ACHN
SK-OV-3 = test system: SK-OV-3
A498 = test system: A498
NCI/ADR-RES = test system: NCI/ADR-RES
MCF7 = test system: MCF7
OVCAR-4 = test system: OVCAR-4
HOP-62 = test system: HOP-62
HCT-116 = test system: HCT-116
NCI-H23 = test system: NCI-H23
PC-3 = test system: PC-3
OVCAR-3 = test system: OVCAR-3
SR = test system: SR
SF-539 = test system: SF-539
SN12C = test system: SN12C
UO-31 = test system: UO-31
COLO 205 = test system: COLO 205
SK-MEL-2 = test system: SK-MEL-2
MOLT-4 = test system: MOLT-4
SNB-19 = test system: SNB-19
HT-29 = test system: HT-29
OVCAR-8 = test system: OVCAR-8
NCI-H460 = test system: NCI-H460
MDA-MB-231 = test system: MDA-MB-231
RXF 393 = test system: RXF 393
K562 = test system: K562
M14 = test system: M14
NCI-H226 = test system: NCI-H226
RPMI-8226 = test system: RPMI-8226
MDA-N = test system: MDA-N
SF-268 = test system: SF-268

## CC(=O)NNc1nc(C)c(C(/C=C/c2ccc3c(c2)OCO3)=N/Nc2ccccc2)s1
HOP-92
  GI50: > 100 µM (inactive)
CAKI-1
  GI50: > 100 µM (inactive)
HCC 2998
  GI50: > 100 µM (inactive)
MDA-MB-435
  GI50: > 100 µM (inactive)
OVCAR-5
  GI50: > 100 µM (inactive)
SF-295
  GI50: > 100 µM (inactive)
SK-MEL-28
  GI50: > 100 µM (inactive)
Hs-578T
  GI50: > 100 µM (inactive)
786-0
  GI50: > 100 µM (inactive)
UACC-62
  GI50: > 100 µM (inactive)
EKVX
  GI50: > 100 µM (inactive)
DU-145
  GI50: > 100 µM (inactive)
KM12
  GI50: > 100 µM (inactive)
SNB-75
  GI50: > 100 µM (inactive)
HCT-15
  GI50: > 100 µM
U-251
  GI50: > 100 µM (inactive)
T47D
  GI50: > 100 µM (inactive)
A549
  GI50: > 100 µM (inactive)
LOX IMVI
  GI50: > 100 µM (inactive)
Malme-3M
  GI50: > 100 µM (inactive)
IGROV-1
  GI50: > 100 µM (inactive)
NCI-H522
  GI50: > 100 µM (inactive)
SK-MEL-5
  GI50: > 100 µM (inactive)
SW-620
  GI50: > 100 µM (inactive)
TK-10
  GI50: > 100 µM (inactive)
CCRF-CEM
  GI50: > 100 µM (inactive)
BT-549
  GI50: > 100 µM (inactive)
UACC-257
  GI50: > 100 µM (inactive)
HL-60
  GI50: > 100 µM (inactive)
ACHN
  GI50: > 100 µM (inactive)
SK-OV-3
  GI50: > 100 µM (inactive)
A498
  GI50: > 100 µM (inactive)
NCI/ADR-RES
  GI50: > 100 µM (inactive)
MCF7
  GI50: > 100 µM (inactive)
OVCAR-4
  GI50: > 100 µM (inactive)
HOP-62
  GI50: > 100 µM (inactive)
HCT-116
  GI50: > 100 µM (inactive)
NCI-H23
  GI50: > 100 µM (inactive)
PC-3
  GI50: > 100 µM (inactive)
OVCAR-3
  GI50: > 100 µM (inactive)
SR
  GI50: > 100 µM (inactive)
SF-539
  GI50: > 100 µM (inactive)
SN12C
  GI50: > 100 µM (inactive)
UO-31
  GI50: > 100 µM (inactive)
COLO 205
  GI50: > 100 µM (inactive)
SK-MEL-2
  GI50: > 100 µM (inactive)
MOLT-4
  GI50: > 100 µM (inactive)
SNB-19
  GI50: > 100 µM (inactive)
HT-29
  GI50: > 100 µM (inactive)
OVCAR-8
  GI50: > 100 µM (inactive)
NCI-H460
  GI50: > 100 µM (inactive)
MDA-MB-231
  GI50: > 100 µM (inactive)
RXF 393
  GI50: > 100 µM (inactive)
K562
  GI50: > 100 µM (inactive)
M14
  GI50: > 100 µM (inactive)
NCI-H226
  GI50: > 100 µM (inactive)
RPMI-8226
  GI50: > 100 µM (inactive)
MDA-N
  GI50: > 100 µM (inactive)
SF-268
  GI50: > 100 µM (inactive)

## COc1cc2c(cc1OC)C/C(=N\O)c1cc(OC)c(OC)cc1/C=C\2
HOP-92
  GI50: 43.8 µM (inactive)
CAKI-1
  GI50: 3.61 µM (inactive)
HCC 2998
  GI50: 2.95 µM (inactive)
MDA-MB-435
  GI50: 0.822 µM (active)
SF-295
  GI50: 3.74 µM (inactive)
SK-MEL-28
  GI50: 4.6 µM (inactive)
Hs-578T
  GI50: 2.12 µM (inactive)
786-0
  GI50: 5.52 µM (inactive)
UACC-62
  GI50: 6.81 µM (inactive)
EKVX
  GI50: 10.7 µM (inactive)
DU-145
  GI50: 4.49 µM (inactive)
KM12
  GI50: 5.2 µM (inactive)
SNB-75
  GI50: 5.31 µM (inactive)
HCT-15
  GI50: 5.31 µM
U-251
  GI50: 4.66 µM (inactive)
T47D
  GI50: 10.6 µM (inactive)
A549
  GI50: 8.38 µM (inactive)
LOX IMVI
  GI50: 6.4 µM (inactive)
Malme-3M
  GI50: 1.48 µM (inactive)
IGROV-1
  GI50: 3.37 µM (inactive)
NCI-H522
  GI50: 1.01 µM (active)
SK-MEL-5
  GI50: 1.95 µM (inactive)
SW-620
  GI50: 3.48 µM (inactive)
TK-10
  GI50: 18.8 µM (inactive)
CCRF-CEM
  GI50: 13.1 µM (inactive)
BT-549
  GI50: 28.7 µM (inactive)
UACC-257
  GI50: 10.4 µM (inactive)
HL-60
  GI50: 3.03 µM (inactive)
ACHN
  GI50: 12.9 µM (inactive)
SK-OV-3
  GI50: 13.1 µM (inactive)
A498
  GI50: 21.2 µM (inactive)
NCI/ADR-RES
  GI50: 5.55 µM (inactive)
MCF7
  GI50: 5.27 µM (inactive)
OVCAR-4
  GI50: 55.5 µM (inactive)
HOP-62
  GI50: 2.82 µM (inactive)
HCT-116
  GI50: 3.82 µM (inactive)
NCI-H23
  GI50: 14.2 µM (inactive)
PC-3
  GI50: 10.2 µM (inactive)
OVCAR-3
  GI50: 3.67 µM (inactive)
SR
  GI50: 1.66 µM (inactive)
SF-539
  GI50: 4.22 µM (inactive)
SN12C
  GI50: 10.4 µM (inactive)
UO-31
  GI50: 15.9 µM (inactive)
COLO 205
  GI50: 4.91 µM (inactive)
SK-MEL-2
  GI50: 3.44 µM (inactive)
MOLT-4
  GI50: 6.41 µM (inactive)
SNB-19
  GI50: 7.08 µM (inactive)
HT-29
  GI50: 3.67 µM (inactive)
OVCAR-8
  GI50: 10.4 µM (inactive)
NCI-H460
  GI50: 3.15 µM (inactive)
MDA-MB-231
  GI50: 5.87 µM (inactive)
RXF 393
  GI50: 5.25 µM (inactive)
K562
  GI50: 4.86 µM (inactive)
M14
  GI50: 3.47 µM (inactive)
NCI-H226
  GI50: 5.56 µM (inactive)
RPMI-8226
  GI50: 3.82 µM (inactive)
MDA-N
  GI50: 1.42 µM (inactive)
SF-268
  GI50: 6.24 µM (inactive)
